Laboratory results published in US9861651B2, “Use of nicotinamide riboside to treat hearing loss” (Cornell University, priority 2012, dated 2018).

Key:
[1] = tested on: P5 DIV3 rat spiral ganglia neurons; assay: Rotenone-induced neurite degeneration (neurite beading/blebbing, NF-200 stain) in spiral ganglia neuron culture; assay type: cell-based
Description: Dissociated spiral ganglia neurons were harvested from P5 rats. Briefly, pups were rapidly decapitated, and cochlea were dissected. The modiolus was then dissected and digested (0.1% trypsin, 0.1% collagenase, HBSS−/−) for 45 min at 37° C. Sequential trituration was performed with fire-polished pipets to release cells from the tissue, and cells were transferred to laminin/polylysine-coated 24-well plates. Neurons were incubated overnight in culture media (DMEM high glucose, N2 supplement, 10 μg/ml insulin, 25 μg/ml BDNF, 25 μg/ml NT3). To elicit neurite degeneration, cultures were incubated with rotenone (10 μM) for 2 hr in the presence/absence of 10 mM NAD+.
Spiral ganglia neuron cultures were fixed with 4% paraformaldehyde and permeabilized with 0.5% Triton X-100™/PBS for 10 min. After washing, cells were blocked with 4% donkey serum and incubated with mouse anti-NF200 (1:1000) overnight at 4° C. Neurite beading was then measured using a previously described, unbiased computerized protocol (Sasaki, Y. et al., J. Neuroscience, 29, 5525-5535 (2009)).
Axonal degeneration in a variety of neurons can be blocked by treatment with millimolar concentrations of NAD+ (Avery, M. A., et al., Current Biology, CB 22, 596-600 (2012)). […] This effect was blocked by simultaneous treatment of neurons with 10 mM NAD+. […]

[2] = tested on: noise-exposed C57BL6 mice; assay: Auditory brainstem response (ABR) testing of noise-induced hearing loss after 90 dB octave band noise exposure for 2 hr; assay type: in vivo; parameters: Avg. hearing loss: unit not given here; settings: for transient threshold shift: 24 hours after noise exposure
Description: Auditory brainstem response testing was performed as previously described (Willott, J. F., Current Protocols in Neuroscience, 8.21B, B1-B12 (2005). Animals were tested following sedation with ketamine and xylazine (40 mg/kg and 10 mg/kg, respectively). Tone burst stimuli at 8, 16, and 32 kHz for 0.5 msec were used to elicit auditory evoked responses using an auditory brainstem recording system (Intelligent Hearing Systems, Miami, Fla.). An evoked response was determined by identifying waveforms at proper time intervals that increased in magnitude with increasing volume as described previously by Willott.
Animals were exposed to a 90 dB octave band for 2 hr in a cage placed in a soundproof chamber (MAC-2, Industrial Acoustics Company, Bronx N.Y.). The mice were able to freely move throughout the cage. The octave band was generated using ToneGen software (NCH software, Greenwood Village, Colo.) routed through an Audiosource Amp100 amplifier driving two down-facing Fostex FT-96H speakers. The sound pressure level was confirmed at 0, 30, 60, and 90 min, and again just prior to completion of sound exposure using an Extech microphone 407736.
To test whether augmented NAD biosynthesis protects from noise-induced hearing loss, auditory brainstem responses (ABR) elicited by tone burst stimuli after acoustic trauma was measured. An ABR occurs when a mouse hears the tone burst stimulus. In these experiments, acoustic trauma was elicited in mice by a 90 dB octave band noise exposure for 120 min. To quantify the degree of hearing loss, “threshold shifts” were measured. These shifts refer to the increased level of sound intensity that is required to elicit an ABR. The threshold for detecting sound stimuli is determined by exposing mice to 0.5 msec tone bursts at a specific frequency and volume. […] Transient threshold shifts (TTS) refer to a temporary hearing loss 24 hours after noise exposure, and permanent threshold shifts (PTS) refer to hearing loss that remains 2 weeks after exposure.
(§1) Nicotinamide riboside (NR) is a well-tolerated precursor of NAD+. In these experiments, NR was administered by intraperitoneal injection twice daily at 1000 mg/kg, a dose which increases tissue NAD levels by 50%, either for 5 days prior to noise exposure and 14 days after noise exposure (NR Before+ After), 5 days prior to noise exposure (NR Before), or 14 days after noise exposure (NR After). […] The hearing loss at 8000 Hz, […], and 32,000 Hz is set forth in the Table and is depicted graphically in FIGS. 4A-4C, respectively.

[3] = tested on: spiral ganglia neurites / inner hair cells of noise-exposed mice; assay: Retraction of spiral ganglia neurites from inner hair cells after noise exposure (cochlear immunohistology); assay type: in vivo; settings: basal turn of the cochlea, NR before and after acoustic trauma
Description: Mouse cochlea were prepared as described in Whitlon, D. S. et al., Brain Research Protocols, 6, 159-166 (2001). Mouse cochlea were quickly dissected from the temporal bone following rapid decapitation. Once separated, the apex of the cochlea was gently fenestrated, and the cochlea were immediately fixed in 4% paraformaldehyde overnight at 4° C. The cochlea were then washed with three changes of PBS and incubated in a decalcification solution (10% EDTA/PBS pH 7.4) under constant rotation at 4° C. for 1 week. The decalcification solution was changed daily. Cochlea were washed in 3 changes of PBS and then treated with progressively increasing sucrose concentrations from 10-30%. The cochlea were incubated overnight in 30% sucrose at 4° C. The cochlea were incubated an additional 24 hr in OCT compound (Tissue-Tek). […]
Noise-induced hearing loss is associated with retraction of spiral ganglia neurites from the inner hair cells. As the most prominent hearing losses are seen in the portion of the auditory spectrum that contains the highest audible frequencies, the basal turn of the cochlea where this portion of the auditory spectrum is detected was focused on. […] Immunofluorescence labeling of the cochlea can readily show whether spiral ganglia neurites are forming their proper contacts with the base of inner hair cells. […]

[4] = tested on: tissue NAD levels; assay: Tissue NAD levels after intraperitoneal NR; assay type: in vivo; settings: intraperitoneal injection twice daily at 1000 mg/kg
Description: as §1

Q: For `NC(=O)c1ccc[n+]([C@@H]2O[C@H](COP(=O)([O-])OP(=O)(O)OC[C@H]3O[C@@H](n4cnc5c(N)ncnc54)[C@H](O)[C@@H]3O)[C@@H](O)[C@H]2O)c1` [NAD+], which “effect on rotenone-induced neurite degeneration” value ([1]; simultaneous treatment with 10 mM NAD+ and 10 μM rotenone, 2 hr) is on record?
A: blocked

Q: Which “neurite degeneration, as measured by the presence of neurite blebbing” value ([1]; 10 μM rotenone, in as early as 2 hr) does the source give for `C=C(C)[C@H]1Cc2c(ccc3c2O[C@@H]2COc4cc(OC)c(OC)cc4[C@@H]2C3=O)O1` [rotenone] here?
A: resulted in neurite degeneration

Q: Which results are given for `NC(=O)c1ccc[n+]([C@@H]2O[C@H](CO)[C@@H](O)[C@H]2O)c1` [NR, Nicotinamide riboside]?
A: transient threshold shift ([2]; 8000 Hz, NR i.p. twice daily 1000 mg/kg): 6 dB; transient threshold shift ([2]; 16,000 Hz, NR i.p. twice daily 1000 mg/kg): 8 dB; transient threshold shift ([2]; 32,000 Hz, NR i.p. twice daily 1000 mg/kg): 16 dB; Avg. hearing loss ([2]; NR after (i.p. twice daily 1000 mg/kg, 14 days after noise), Baseline, 8 kHz): 14; Avg. hearing loss ([2]; NR after, 1 wk post noise, 8 kHz): 17; Avg. hearing loss ([2]; NR after, 1 wk post noise, 32 kHz): 28; Avg. hearing loss ([2]; NR after, 2 wks post noise, 8 kHz): 18; Avg. hearing loss ([2]; NR after, 2 wks post noise, 16 kHz): 15; Avg. hearing loss ([2]; NR after, 2 wks post noise, 32 kHz): 28; Avg. hearing loss ([2]; NR after, 24 h post noise, 8 kHz): 23; Avg. hearing loss ([2]; NR after, 24 h post noise, 16 kHz): 23; Avg. hearing loss ([2]; NR after, 24 h post noise, 32 kHz): 37; Avg. hearing loss ([2]; NR after, Baseline, 16 kHz): 19; Avg. hearing loss ([2]; NR after, Baseline, 32 kHz): 31; Avg. hearing loss ([2]; NR after, Pre-noise, 8 kHz): 14; Avg. hearing loss ([2]; NR after, Pre-noise, 16 kHz): 21; Avg. hearing loss ([2]; NR after, Pre-noise, 32 kHz): 16; Avg. hearing loss ([2]; NR before (i.p. twice daily 1000 mg/kg, 5 days prior to noise), Baseline, 8 kHz): 14; Avg. hearing loss ([2]; NR before and after (i.p. twice daily 1000 mg/kg, 5 days prior to and 14 days after noise), Baseline, 8 kHz): 16; Avg. hearing loss ([2]; NR before and after, 1 wk post noise, 8 kHz): 15; Avg. hearing loss ([2]; NR before and after, 1 wk post noise, 16 kHz): 25; Avg. hearing loss ([2]; NR before and after, 1 wk post noise, 32 kHz): 40; Avg. hearing loss ([2]; NR before and after, 2 wks post noise, 8 kHz): 20; Avg. hearing loss ([2]; NR before and after, 2 wks post noise, 16 kHz): 20; Avg. hearing loss ([2]; NR before and after, 2 wks post noise, 32 kHz): 20; Avg. hearing loss ([2]; NR before and after, 24 h post noise, 8 kHz): 22; Avg. hearing loss ([2]; NR before and after, 24 h post noise, 16 kHz): 26; Avg. hearing loss ([2]; NR before and after, 24 h post noise, 32 kHz): 44; Avg. hearing loss ([2]; NR before and after, Baseline, 16 kHz): 13; Avg. hearing loss ([2]; NR before and after, Baseline, 32 kHz): 19; Avg. hearing loss ([2]; NR before and after, Pre-noise, 8 kHz): 16; Avg. hearing loss ([2]; NR before and after, Pre-noise, 16 kHz): 18; Avg. hearing loss ([2]; NR before and after, Pre-noise, 32 kHz): 28; Avg. hearing loss ([2]; NR before, 1 wk post noise, 8 kHz): 15; Avg. hearing loss ([2]; NR before, 1 wk post noise, 16 kHz): 23; Avg. hearing loss ([2]; NR before, 1 wk post noise, 32 kHz): 23; Avg. hearing loss ([2]; NR before, 2 wks post noise, 8 kHz): 18; Avg. hearing loss ([2]; NR before, 2 wks post noise, 16 kHz): 18; Avg. hearing loss ([2]; NR before, 2 wks post noise, 32 kHz): 23; Avg. hearing loss ([2]; NR before, 24 h post noise, 8 kHz): 18; Avg. hearing loss ([2]; NR before, 24 h post noise, 16 kHz): 25; Avg. hearing loss ([2]; NR before, 24 h post noise, 32 kHz): 38; Avg. hearing loss ([2]; NR before, Baseline, 16 kHz): 16; Avg. hearing loss ([2]; NR before, Baseline, 32 kHz): 21; Avg. hearing loss ([2]; NR before, Pre-noise, 8 kHz): 13; Avg. hearing loss ([2]; NR before, Pre-noise, 16 kHz): 18; Avg. hearing loss ([2]; NR before, Pre-noise, 32 kHz): 17; protection from permanent hearing loss ([2]; all 3 frequencies (8000, 16,000, 32,000 Hz), NR i.p. twice daily 1000 mg/kg): similarly protected; neurite retraction (distance of spiral ganglia neurites from inner hair cells) ([3]; 24 hr after noise exposure): 4.3±4.5 μm; neurite retraction (distance of spiral ganglia neurites from inner hair cells) ([3]; 14 d after noise exposure): 2.5±3.5 μm; increase of tissue NAD levels [4]: 50%
